From patent US12642271B2, “Active compound combinations comprising a (thio)carboxamide derivative and a fungicidal compound” (Bayer CropScience Aktiengesellschaft, priority 2011, dated 2026)
Values joined by “and” are separate entries in the source; they are usually repeats but may differ in a detail not shown here. Equal values may be shown once. Read-outs that look alike come from different tables or passages of the source.

Tests used:
Fusarium graminearum = assay type: in vivo
Leptosphaeria nodorum = Leptosphaeria nodorum test (wheat)/preventive; assay type: in vivo; conditions: for pest or weed control at 10 ppm / pest or weed control at 40 ppm: Parastagonospora nodorum, 192 h, read-out: Efficacy in % found; for pest or weed control at 40 ppm: application rate 40 ppm
Puccinia triticina = experiment: Puccinia triticina-test (wheat)/preventive; assay type: in vivo; conditions: preventive, evaluated 8 days after inoculation; for pest or weed control at 40 ppm / pest or weed control at 10 ppm: Puccinia triticina, 192 h, read-out: Efficacy in % found; for pest or weed control at 40 ppm: application rate 40 ppm a.i.
Pyrenophora teres = experiment: Pyrenophora teres-test (barley)/preventive; assay type: in vivo; conditions: application rate 10 ppm a.i., preventive, evaluated 8 days after inoculation
Venturia inaequalis = experiment: Venturia test (apples)/preventive; conditions: for pest or weed control at 0.5 ppm: 0.5 ppm a.i.
Description: After the spray coating has dried on, the plants are inoculated with an aqueous conidia suspension of the causal agent of apple scab (Venturia inaequalis) and then remain for 1 day in an incubation cabinet at approximately 20° C. and a relative atmospheric humidity of 100%.
The plants are then placed in a greenhouse at approximately 21° C. and a relative atmospheric humidity of approximately 90%.
The test is evaluated 10 days after the inoculation.

Phytophthora infestans = experiment: whole plant or invertebrate; assay type: in vivo; conditions: Phytophthora infestans, 72 h, read-out: Efficacy in % found
Alternaria solani = experiment: Alternaria test (tomatoes)/preventive; assay type: in vivo; conditions: Alternaria solani, 72 h, read-out: Efficacy in % found
Sphaerotheca fuliginea = experiment: Sphaerotheca test (cucumbers)/preventive; assay type: in vivo; conditions: Podosphaera fuliginea, 168 h, read-out: Efficacy in % found; for pest or weed control at 0.5 ppm: 0.5 ppm a.i.; for pest or weed control at 0.25 ppm: 0.25 ppm a.i.
[1] = tested on: Blumeria graminis f.sp. hordei; experiment: Blumeria test (barley)/preventive; assay type: in vivo; conditions: Blumeria graminis, 168 h, read-out: Efficacy in % found; for pest or weed control at 10 ppm: 10 ppm a.i.
[2] = tested on: Fusarium nivale (var. majus); experiment: Fusarium nivale (var. majus)-test (wheat)/preventive; conditions: Microdochium nivale, in Triticum aestivum, 120 h; for pest or weed control at 10 ppm: 10 ppm a.i.; for pest or weed control at 40 ppm: 40 ppm a.i.
Description: After the spray coating has been dried, the plants are slightly injured by using a sandblast and afterwards they are sprayed with a conidia suspension of Fusarium nivale (var. majus).
The plants are placed in the greenhouse under a translucent incubation cabinet at a temperature of approximately 10° C. and a relative atmospheric humidity of approximately 100%.
The test is evaluated 5 days after the inoculation.

Septoria tritici = experiment: Septoria tritici-test (wheat)/preventive; assay type: in vivo; conditions: Zymoseptoria tritici, 504 h, preventive, evaluated 21 days after inoculation, read-out: Efficacy in % found; for pest or weed control at 10 ppm: application rate 10 ppm a.i.
Botrytis cinerea = experiment: Botrytis test (beans)/preventive
Description: After the spray coating has dried on, 2 small pieces of agar covered with growth of Botrytis cinerea are placed on each leaf. The inoculated plants are placed in a darkened chamber at 20° C. and a relative atmospheric humidity of 100%. 2 days after the inoculation, the size of the lesions on the leaves is evaluated.

[3] = application rate 10 ppm, wheat, preventive, evaluated 8 days after inoculation
[4] = wheat, preventive, evaluated 8 days after inoculation
[5] = Venturia inaequalis, 240 h, read-out: Efficacy in % found, Table 2b, 0.25 ppm a.i.
[6] = read-out: Efficacy in % found, Table 8e

Structure (SMILES)	Efficacy in % found (Fusarium graminearum; Table 7b, 40 ppm a.i.)	Efficacy in % found (Pyrenophora teres)	pest or weed control at 0.25 ppm (Phytophthora infestans)	pest or weed control at 0.5 ppm (Phytophthora infestans)	pest or weed control at 100 ppm (Phytophthora infestans)	pest or weed control at 0.5 ppm (Alternaria solani; Table 3b)	Efficacy in % found (Fusarium graminearum; Table 7a, 10 ppm a.i.)	pest or weed control at 10 ppm (Leptosphaeria nodorum; [3])	pest or weed control at 40 ppm (Leptosphaeria nodorum; [4])	pest or weed control at 40 ppm (Puccinia triticina)	pest or weed control at 0.25 ppm (Venturia inaequalis; [5])	Efficacy in % found (Fusarium graminearum; Table 7b, 10 ppm a.i.)	pest or weed control at 10 ppm (Puccinia triticina; application rate 10 ppm a.i.)	pest or weed control at 10 ppm (Septoria tritici)	further results
CC(C)C1C2CCC1c1c(NC(=O)c3cn(C)nc3C(F)F)cccc12 (stereo not drawn) [B2.11, isopyrazam (syn + anti)]	0%	0%													Efficacy in % found (Leptosphaeria nodorum; Table 9b, 10 ppm a.i.): 0%; Efficacy in % found (Puccinia triticina; application rate 10 ppm a.i.): 33%; Efficacy in % found (Venturia inaequalis; Table 2d, 0.25 ppm a.i.): 88%
Cn1nc(C(F)F)c(C(=O)N(Cc2c(Cl)cccc2C(F)(F)F)C2CC2)c1F [A17, N-[2-chloro-6-(trifluoromethyl)benzyl]-N-cyclopropyl-3-(difluoromethyl)-5-fluoro-1-methyl-1H-pyrazole-4-carboxamide]		86% and 89%	0%	0%	30%	71%	50%	33%	67%	67%	8%				pest or weed control at 0.5 ppm (Alternaria solani; Table 3c): 32%; pest or weed control at 0.5 ppm (Sphaerotheca fuliginea; Table 4a): 74%; pest or weed control at 0.25 ppm (Sphaerotheca fuliginea; Table 4b): 71%; pest or weed control at 10 ppm ([1]; Table 6a): 95%; pest or weed control at 10 ppm (Leptosphaeria nodorum; Table 9e, 10 ppm a.i.): 29%; pest or weed control at 10 ppm ([2]; read-out: Efficacy in % found, Table 8d): 43%
Cn1nc(C(F)F)c(C(=O)N(Cc2cc(Cl)ccc2C(F)(F)F)C2CC2)c1F [A15, N-[5-chloro-2-(trifluoromethyl)benzyl]-N-cyclopropyl-3-(difluoromethyl)-5-fluoro-1-methyl-1H-pyrazole-4-carboxamide]	0%	67%	0%	0%	25%	63%				89%	0%	0%	44%	57%	pest or weed control at 0.25 ppm (Alternaria solani; Table 3b, 0.25 ppm): 59%; pest or weed control at 0.25 ppm (Sphaerotheca fuliginea; Table 4c): 29%; pest or weed control at 10 ppm ([1]; Table 6b): 13%; pest or weed control at 40 ppm ([1]; Table 6b, 40 ppm a.i.): 70%; pest or weed control at 40 ppm ([1]; Table 6c, 40 ppm): 75%; Efficacy in % found (Botrytis cinerea; Table 5a, 2.5 ppm a.i.): 8%; pest or weed control at 0.5 ppm (Venturia inaequalis; Venturia inaequalis, 240 h, read-out: Efficacy in % found, Table 2a): 0%; pest or weed control at 10 ppm ([2]; read-out: Efficacy in % found, Table 8c): 63%
CON=C(C(=O)OC)c1ccccc1CON=C(C)c1cccc(C(F)(F)F)c1 [B3.22, trifloxystrobin]							0%	40%	57%			25%		13%	pest or weed control at 1 ppm (Sphaerotheca fuliginea; Table 4c, 1 ppm a.i.): 21%
CC(C)c1ccc(Cl)cc1CN(C(=O)c1c(C(F)F)nn(C)c1F)C1CC1 [A5, N-(5-chloro-2-isopropylbenzyl)-N-cyclopropyl-3-(difluoromethyl)-5-fluoro-1-methyl-1H-pyrazole-4-carboxamide]				0%				20%	60%	94%			44%		pest or weed control at 0.5 ppm (Alternaria solani; Table 3e): 6%; pest or weed control at 0.5 ppm (Alternaria solani; Table 3d): 0%; pest or weed control at 0.5 ppm (Sphaerotheca fuliginea; Table 4d): 0%; pest or weed control at 40 ppm ([1]; Table 6f, 40 ppm a.i.): 25%; pest or weed control at 40 ppm (Septoria tritici; application rate 40 ppm a.i.): 93%; Efficacy in % found (Botrytis cinerea; Table 5b, 0.5 ppm a.i.): 16%; Efficacy in % found (Botrytis cinerea; Table 5b, 2 ppm a.i.): 72%; pest or weed control at 0.5 ppm (Venturia inaequalis; Venturia inaequalis, 240 h, read-out: Efficacy in % found, Table 2e): 15%; pest or weed control at 2 ppm (Venturia inaequalis; Venturia inaequalis, 240 h, read-out: Efficacy in % found, Table 2e, 2 ppm a.i.): 57%; pest or weed control at 0.25 ppm (Venturia inaequalis; Venturia inaequalis, 240 h, read-out: Efficacy in % found, Table 2d, 0.25 ppm a.i.): 0%; pest or weed control at 0.5 ppm (Venturia inaequalis; Venturia inaequalis, 240 h, read-out: Efficacy in % found, Table 2d): 0%; pest or weed control at 10 ppm [2, 6]: 0%; pest or weed control at 40 ppm [2, 6]: 0%; pest or weed control at 40 ppm ([2]; read-out: Efficacy in % found, Table 8f): 38%
